Measurements as given in patent publication US20230042936A1, “PYRIDO[2,3-d]PYRIMIDIN-7(8H)-ONES AS CDK INHIBITORS” (PROSENESTAR LLC, priority 2020, published 2023).
Converted amounts (≈) assume the structure as drawn. Where two headings read alike, the source gives them in different places.

Key:
[1] = system: U87MG glioblastoma cell line; assay: Proliferation assay: determination of GI50; assay type: cell-based, human
Procedure: (§1) The following human tumor cell lines, all Retinoblastoma (Rb)-proficient, were used in this study: MDA-MB231 (breast cancer), MDA-MB453 (breast cancer), U87MG (glioblastoma) and H460 (lung cancer). MDA-MB468 (breast cancer) and SW1783 (glioblastoma) Rb-deficient cells were also included in the study, as well as the MCF10A non-transformed mammary epithelial cell line. Tumor cell lines were maintained in DMEM or RPMI-1640 medium, depending on the cell line, supplemented with 10% FBS. MCF10A cells were grown in complete mammary epithelial growth medium (MEGM, Lonza). Cell lines were authenticated by short tandem repeat (STR) loci profiling with the GenePrint® 10 System (Promega).
(§2) All human cancer cell lines (Table 2) were obtained from the American Type Culture Collection, and were maintained in DMEM (Hyclone) or RPMI-1640 medium (Sigma) supplemented with 10% fetal bovine serum (Sigma). Non-transformed MCF10 cell line was maintained in MEGM Mammary Epithelial Cell Growth Medium (Lonza). Immortalized mouse embryonic fibroblasts (MEFs) were maintained in DMEM with 10% fetal bovine serum.
(§3) 48 h later cells were fixed with PFA 4% for 15 minutes, stained with 10 μg/ml Hoechst 33342 (Molecular Probes, Thermo Fisher) for 30 minutes and washed twice with PBS. Cells were imaged in a high content screening system (Opera Phoenix™, Perkin Elmer) using a 20× dry objective (30 fields/well). Cell counts were determined by the Opera software (Perkin Elmer) and data were further processed with SPSS software. GI50 was calculated by estimating the absolute IC50 using dose-response inhibition tool in Prism6 (Graphpad Software Inc.).

[2] = system: MCF10 non-transformed mammary epithelial cell line; assay: Proliferation assay: determination of GI50; assay type: cell-based, human; settings: Table 3, 48 h, n = 2 independent experiments
Procedure: as §1, §2, §3

[3] = system: H460 lung carcinoma cell line; assay: Proliferation assay: determination of GI50; assay type: cell-based, human; settings: Table 3, 48 h, n = 2 independent experiments
Procedure: as §1, §2, §3

[4] = system: MDA-MB-231 breast carcinoma cell line; assay: Proliferation assay: determination of GI50; assay type: cell-based, human
Procedure: as §1, §2, §3

[5] = Metabolic stability in microsomes; assay type: in vitro ADME; settings: mouse, 60-90 min test
CDK19/CycC = CDK19/CycC (Homo sapiens, UniProt Q9BWU1); assay: Kinase profiling; assay type: biochemical; settings: 10 semi-logarithmic dilutions from 50 μM, singlicate
Chain of CDK19/CycC (Q9BWU1 whole entry): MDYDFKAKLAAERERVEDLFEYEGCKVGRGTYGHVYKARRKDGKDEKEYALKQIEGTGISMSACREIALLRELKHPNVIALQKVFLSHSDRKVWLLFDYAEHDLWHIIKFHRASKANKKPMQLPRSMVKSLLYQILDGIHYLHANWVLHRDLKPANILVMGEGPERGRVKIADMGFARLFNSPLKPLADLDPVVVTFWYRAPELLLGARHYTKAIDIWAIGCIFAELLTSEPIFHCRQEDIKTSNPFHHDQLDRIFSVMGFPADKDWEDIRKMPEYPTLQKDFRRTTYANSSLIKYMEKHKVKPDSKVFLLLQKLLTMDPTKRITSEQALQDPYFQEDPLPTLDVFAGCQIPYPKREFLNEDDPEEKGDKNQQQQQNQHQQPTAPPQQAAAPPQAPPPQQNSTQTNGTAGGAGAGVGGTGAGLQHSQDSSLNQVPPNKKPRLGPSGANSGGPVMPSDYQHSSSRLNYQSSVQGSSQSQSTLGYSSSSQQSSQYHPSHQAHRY
Chain of CDK19/CycC (P24863 whole entry partner): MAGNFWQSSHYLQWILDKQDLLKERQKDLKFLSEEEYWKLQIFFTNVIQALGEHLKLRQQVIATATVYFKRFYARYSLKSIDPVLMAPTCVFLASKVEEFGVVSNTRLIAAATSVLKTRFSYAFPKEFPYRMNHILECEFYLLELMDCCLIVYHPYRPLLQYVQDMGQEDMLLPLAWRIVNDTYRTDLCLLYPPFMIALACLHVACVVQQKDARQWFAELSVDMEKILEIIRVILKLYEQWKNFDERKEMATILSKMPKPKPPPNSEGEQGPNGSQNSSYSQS

[6] = Metabolic stability in hepatocytes; assay type: in vitro ADME; settings: mouse, 60-90 min test
[7] = not told
[8] = system: SW1783 glioblastoma cell line (pRB mutant); assay: Proliferation assay: determination of GI50; assay type: cell-based; settings: Homo sapiens, Table 4, n = 4, read-out: Growth inhibition GI50, Glioblastoma pRB Mutant SW1783
Procedure: as §1, §2, §3

[9] = system: MDA-MB-468 breast carcinoma cell line (pRB mutant); assay: Proliferation assay: determination of GI50; assay type: cell-based; settings: Homo sapiens, Table 4, n = 2, read-out: Growth inhibition GI50, Breast cancer pRB Mutant MDA-MB-468
Procedure: as §1, §2, §3

[10] = Thermodynamic solubility (pH 7.4); assay type: physicochemical; settings: pH 7.4, aqueous buffer, thermodynamic from solid
DYRK2 = molecular target: T1, DYRK2 (Homo sapiens, UniProt Q92630); assay: Kinase profiling; assay type: biochemical; settings: 10 semi-logarithmic dilutions from 50 μM, singlicate; read-out: IC50 DYRK2
T1 sequence (Q92630 1-601): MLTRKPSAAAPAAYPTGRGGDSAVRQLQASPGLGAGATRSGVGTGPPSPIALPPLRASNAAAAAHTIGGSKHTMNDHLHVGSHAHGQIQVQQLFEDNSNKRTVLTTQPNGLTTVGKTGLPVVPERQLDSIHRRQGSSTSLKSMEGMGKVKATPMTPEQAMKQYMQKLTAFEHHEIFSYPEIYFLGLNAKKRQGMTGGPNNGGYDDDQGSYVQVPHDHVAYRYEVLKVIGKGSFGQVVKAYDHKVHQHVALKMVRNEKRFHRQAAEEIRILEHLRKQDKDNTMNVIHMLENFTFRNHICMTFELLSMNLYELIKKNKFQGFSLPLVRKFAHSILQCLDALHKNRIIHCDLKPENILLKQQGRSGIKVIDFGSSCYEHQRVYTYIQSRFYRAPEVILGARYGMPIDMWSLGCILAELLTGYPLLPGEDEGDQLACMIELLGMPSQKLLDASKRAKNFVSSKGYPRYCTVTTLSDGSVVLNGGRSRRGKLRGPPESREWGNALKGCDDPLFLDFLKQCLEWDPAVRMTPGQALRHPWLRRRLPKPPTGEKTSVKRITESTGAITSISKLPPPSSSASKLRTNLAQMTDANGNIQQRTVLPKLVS

Caco-2 cells = assay: Permeability Caco-2 cells; assay type: in vitro ADME
[11] = Permeability Caco-2 cells; assay type: in vitro ADME; settings: human, Caco-2
Cdk2/4/6_KO MEFs = assay: Cell growth in Cdk-deficient MEFs; assay type: cell-based, mouse; settings: relative cell count day 6 versus day 3; FIG. 4
Procedure: (§4) Cdk-deficient MEFs were plated in 10-cm dish in triplicate (100,000/well) and treated with the selected compounds at the indicated concentration, based on GI50 previously determined in the MDA-MB-231 cell line. Cells were counted in an optical microscope 3 and 6 days after treatment to estimate the relative cell growth in each condition.
(§5) To further investigate the relative functional dependence of the subject compounds on CDK2 versus CDK4 or CDK6, the specific effects of PS004, PS006 and PS009 were tested on CDK-deficient mouse embryonic fibroblasts (MEFs) obtained from Cdk2 knock out, Cdk4; Cdk6-double knock out and Cdk2; Cdk4; Cdk6-triple knock out mouse models.

Cdk4/6_KO MEFs = assay: Cell growth in Cdk-deficient MEFs; assay type: cell-based, mouse; settings: relative cell count day 6 versus day 3; FIG. 4
Procedure: as §4, §5

[12] = Metabolic stability in microsomes; assay type: in vitro ADME; settings: human, 60-90 min test
[13] = Kinetic solubility (pH 7.4); assay type: physicochemical; settings: pH 7.4, aqueous buffer, kinetic from dmso stock
[14] = Metabolic stability in hepatocytes; assay type: in vitro ADME; settings: human, 60-90 min test
CDK3/CycC = CDK3/CycC (Homo sapiens, UniProt Q00526); assay: Kinase profiling; assay type: biochemical; settings: 10 semi-logarithmic dilutions from 50 μM, singlicate
PIM1 = PIM1 (Homo sapiens, UniProt P11309); assay: Kinase profiling; assay type: biochemical; settings: 10 semi-logarithmic dilutions from 50 μM, singlicate
PCTAIRE1/CycY = PCTAIRE1/CycY (Homo sapiens, UniProt Q00536); assay: Kinase profiling; assay type: biochemical; settings: 10 semi-logarithmic dilutions from 50 μM, singlicate
Chain of PCTAIRE1/CycY (Q00536 whole entry, species assumed): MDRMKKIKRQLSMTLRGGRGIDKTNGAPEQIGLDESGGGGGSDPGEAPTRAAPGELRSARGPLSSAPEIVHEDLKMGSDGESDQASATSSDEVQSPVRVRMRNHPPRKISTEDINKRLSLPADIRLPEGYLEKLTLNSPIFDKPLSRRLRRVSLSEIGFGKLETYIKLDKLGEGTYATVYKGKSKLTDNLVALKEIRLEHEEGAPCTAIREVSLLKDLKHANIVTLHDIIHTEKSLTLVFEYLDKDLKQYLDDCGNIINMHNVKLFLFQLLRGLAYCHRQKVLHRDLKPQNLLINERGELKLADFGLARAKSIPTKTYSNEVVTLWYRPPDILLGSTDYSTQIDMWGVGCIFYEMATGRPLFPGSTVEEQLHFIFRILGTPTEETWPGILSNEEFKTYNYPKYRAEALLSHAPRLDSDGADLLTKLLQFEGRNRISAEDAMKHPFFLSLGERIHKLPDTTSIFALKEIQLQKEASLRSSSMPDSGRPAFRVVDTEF
Chain of PCTAIRE1/CycY (Q8ND76 whole entry partner, species assumed): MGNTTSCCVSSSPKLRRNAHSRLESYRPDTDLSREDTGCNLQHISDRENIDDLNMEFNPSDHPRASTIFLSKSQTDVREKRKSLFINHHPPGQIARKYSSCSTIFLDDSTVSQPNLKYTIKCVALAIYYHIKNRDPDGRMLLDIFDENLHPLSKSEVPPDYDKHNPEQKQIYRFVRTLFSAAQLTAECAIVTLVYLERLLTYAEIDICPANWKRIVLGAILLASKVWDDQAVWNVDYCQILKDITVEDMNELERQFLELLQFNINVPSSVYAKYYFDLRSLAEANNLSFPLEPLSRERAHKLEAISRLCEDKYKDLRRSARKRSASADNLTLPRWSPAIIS

[15] = system: MDA-MB-231 human breast cancer cells; assay: Cell cycle analysis (DNA content, flow cytometry); assay type: cell-based; settings: GI50 concentration; FIG. 1
Procedure: FIG. 1 depicts DNA content profiles of MDA-MB-231 human breast cancer cells treated with subject compounds or commercial CDK inhibitors, showing the percentage of cells at the different cell cycle phases after 48 hours of the treatments indicated. (n=6 technical replicates).
Cells were collected by trypsinization, washed with PBS and fixed with cold 70% ethanol. Cells were treated with 250 μg/ml RNase (Qiagen) for 30 minutes at 37° C. and stained with 10 μg/ml Propidium Iodide (Sigma). Cell cycle was analyzed by flow cytometry using a LSR Fortessa Analyzer. Cell cycle profiles were generated and analyzed with FlowJo software.
Cells were collected by tripsinization at several times after treatment with the indicated compounds and, then, fixed with cold 70% Ethanol. DNA content was determined by staining with propidium iodide (10 μg/ml, Sigma Aldrich). Data acquisition was performed with a LSR Fortessa analyzer (BD Biosciences) and analysed using FlowJo software.

CDK5/p25NCK = CDK5/p25NCK (Homo sapiens, UniProt Q00535); assay: Kinase profiling; assay type: biochemical; settings: 10 semi-logarithmic dilutions from 50 μM, singlicate
Chain of CDK5/p25NCK (Q00535 whole entry): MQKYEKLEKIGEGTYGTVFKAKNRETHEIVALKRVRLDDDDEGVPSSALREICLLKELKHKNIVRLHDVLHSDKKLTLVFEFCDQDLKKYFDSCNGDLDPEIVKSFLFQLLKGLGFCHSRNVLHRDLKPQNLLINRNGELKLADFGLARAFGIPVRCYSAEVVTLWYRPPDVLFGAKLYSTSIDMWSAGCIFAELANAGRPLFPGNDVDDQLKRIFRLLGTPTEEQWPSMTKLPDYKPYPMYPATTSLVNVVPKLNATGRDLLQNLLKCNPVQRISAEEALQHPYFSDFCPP
Chain of CDK5/p25NCK (Q15078 99-307 partner limits assumed): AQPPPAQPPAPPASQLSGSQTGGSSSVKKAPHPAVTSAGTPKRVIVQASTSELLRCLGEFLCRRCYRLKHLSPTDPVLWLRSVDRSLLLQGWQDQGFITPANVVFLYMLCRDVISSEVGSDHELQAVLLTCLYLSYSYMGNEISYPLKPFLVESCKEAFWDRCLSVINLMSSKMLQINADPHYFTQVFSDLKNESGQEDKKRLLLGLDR

CDK5/p35NCK = CDK5/p35NCK (Homo sapiens, UniProt Q00535); assay: Kinase profiling; assay type: biochemical; settings: 10 semi-logarithmic dilutions from 50 μM, singlicate
Chain of CDK5/p35NCK (Q00535 whole entry, the tested form may be a part): as the sequence (Q00535 whole entry) above
Chain of CDK5/p35NCK (Q15078 whole entry partner, the tested form may be a part): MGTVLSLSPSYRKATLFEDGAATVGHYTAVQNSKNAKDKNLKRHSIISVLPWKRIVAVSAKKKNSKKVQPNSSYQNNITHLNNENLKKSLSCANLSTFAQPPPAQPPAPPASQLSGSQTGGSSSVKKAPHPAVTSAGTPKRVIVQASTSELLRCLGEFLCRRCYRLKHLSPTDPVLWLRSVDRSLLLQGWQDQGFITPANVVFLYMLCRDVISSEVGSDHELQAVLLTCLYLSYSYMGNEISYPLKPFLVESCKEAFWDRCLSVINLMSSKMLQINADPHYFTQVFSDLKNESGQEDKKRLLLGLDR

AKT1 aa1-480 = molecular target: T2, AKT1 aa1-480 (Homo sapiens, UniProt P31749); assay: Kinase profiling; assay type: biochemical; settings: 10 semi-logarithmic dilutions from 50 μM, singlicate
T2 construct: AKT1 aa1-480

HIPK2 = HIPK2 (Homo sapiens, UniProt Q9H2X6); assay: Kinase profiling; assay type: biochemical; settings: 10 semi-logarithmic dilutions from 50 μM, singlicate; read-out: IC50 HIPK2
CDC7/DBF4 = CDC7/DBF4 (Homo sapiens, UniProt O00311); assay: Kinase profiling; assay type: biochemical; settings: 10 semi-logarithmic dilutions from 50 μM, singlicate; read-out: IC50 CDC7/DBF4
Chain of CDC7/DBF4 (O00311 whole entry): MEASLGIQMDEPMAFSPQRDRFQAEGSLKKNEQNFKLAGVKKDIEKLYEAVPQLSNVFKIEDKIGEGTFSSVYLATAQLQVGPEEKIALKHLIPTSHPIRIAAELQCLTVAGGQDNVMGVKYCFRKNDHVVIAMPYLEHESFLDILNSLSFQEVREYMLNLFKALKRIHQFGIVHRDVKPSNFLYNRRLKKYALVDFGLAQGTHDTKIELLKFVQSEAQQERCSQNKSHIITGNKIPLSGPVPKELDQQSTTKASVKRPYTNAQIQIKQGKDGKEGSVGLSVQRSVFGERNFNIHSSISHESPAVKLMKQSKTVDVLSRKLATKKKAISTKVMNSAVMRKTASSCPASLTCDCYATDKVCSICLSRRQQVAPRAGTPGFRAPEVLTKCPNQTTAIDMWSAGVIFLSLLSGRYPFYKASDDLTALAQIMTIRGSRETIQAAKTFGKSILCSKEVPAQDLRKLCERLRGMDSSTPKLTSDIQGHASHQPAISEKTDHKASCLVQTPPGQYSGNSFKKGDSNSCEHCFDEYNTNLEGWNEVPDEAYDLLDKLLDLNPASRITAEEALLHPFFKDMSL
Chain of CDC7/DBF4 (Q9UBU7 whole entry partner): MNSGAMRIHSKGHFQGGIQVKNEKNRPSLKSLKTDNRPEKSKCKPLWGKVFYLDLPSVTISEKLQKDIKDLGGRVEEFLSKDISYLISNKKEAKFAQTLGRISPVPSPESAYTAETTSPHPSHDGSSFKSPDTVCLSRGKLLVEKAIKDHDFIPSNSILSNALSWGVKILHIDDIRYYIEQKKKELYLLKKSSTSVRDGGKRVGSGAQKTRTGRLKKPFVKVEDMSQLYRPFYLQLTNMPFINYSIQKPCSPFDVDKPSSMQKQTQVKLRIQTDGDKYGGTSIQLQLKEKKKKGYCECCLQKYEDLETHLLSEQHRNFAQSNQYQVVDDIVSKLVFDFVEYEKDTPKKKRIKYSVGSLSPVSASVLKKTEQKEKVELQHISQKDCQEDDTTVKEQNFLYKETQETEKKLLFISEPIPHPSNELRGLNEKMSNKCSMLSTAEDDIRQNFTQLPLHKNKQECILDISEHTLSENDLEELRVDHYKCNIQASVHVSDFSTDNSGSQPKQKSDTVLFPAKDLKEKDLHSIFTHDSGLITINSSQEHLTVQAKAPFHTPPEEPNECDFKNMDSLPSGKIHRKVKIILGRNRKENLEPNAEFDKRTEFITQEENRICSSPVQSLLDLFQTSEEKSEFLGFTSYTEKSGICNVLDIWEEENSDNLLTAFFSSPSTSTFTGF

DYRK1A = DYRK1A (Homo sapiens, UniProt Q13627); assay: Kinase profiling; assay type: biochemical; settings: 10 semi-logarithmic dilutions from 50 μM, singlicate
CDK8/CycC = CDK8/CycC (Homo sapiens, UniProt P49336); assay: Kinase profiling; assay type: biochemical; settings: 10 semi-logarithmic dilutions from 50 μM, singlicate
Chain of CDK8/CycC (P49336 whole entry): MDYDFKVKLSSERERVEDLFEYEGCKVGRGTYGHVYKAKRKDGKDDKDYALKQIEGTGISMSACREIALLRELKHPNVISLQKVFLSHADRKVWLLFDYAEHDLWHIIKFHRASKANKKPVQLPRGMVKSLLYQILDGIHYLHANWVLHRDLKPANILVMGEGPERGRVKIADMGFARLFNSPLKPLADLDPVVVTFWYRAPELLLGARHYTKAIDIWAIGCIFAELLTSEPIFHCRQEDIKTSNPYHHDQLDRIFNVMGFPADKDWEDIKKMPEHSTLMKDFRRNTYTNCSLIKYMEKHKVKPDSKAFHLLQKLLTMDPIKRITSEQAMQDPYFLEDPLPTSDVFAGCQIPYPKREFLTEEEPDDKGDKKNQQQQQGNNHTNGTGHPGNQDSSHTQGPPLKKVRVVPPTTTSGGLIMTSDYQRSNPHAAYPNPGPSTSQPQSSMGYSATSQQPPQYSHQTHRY
Chain of CDK8/CycC (P24863 whole entry partner): as the sequence (P24863 whole entry partner) above

CDK7/CycH/MAT1 = CDK7/CycH/MAT1 (Homo sapiens, UniProt P50613); assay: Kinase profiling; assay type: biochemical; settings: 10 semi-logarithmic dilutions from 50 μM, singlicate
ERK1 = ERK1 (Homo sapiens, UniProt P27361); assay: Kinase profiling; assay type: biochemical; settings: 10 semi-logarithmic dilutions from 50 μM, singlicate
Chain of ERK1 (P27361 whole entry): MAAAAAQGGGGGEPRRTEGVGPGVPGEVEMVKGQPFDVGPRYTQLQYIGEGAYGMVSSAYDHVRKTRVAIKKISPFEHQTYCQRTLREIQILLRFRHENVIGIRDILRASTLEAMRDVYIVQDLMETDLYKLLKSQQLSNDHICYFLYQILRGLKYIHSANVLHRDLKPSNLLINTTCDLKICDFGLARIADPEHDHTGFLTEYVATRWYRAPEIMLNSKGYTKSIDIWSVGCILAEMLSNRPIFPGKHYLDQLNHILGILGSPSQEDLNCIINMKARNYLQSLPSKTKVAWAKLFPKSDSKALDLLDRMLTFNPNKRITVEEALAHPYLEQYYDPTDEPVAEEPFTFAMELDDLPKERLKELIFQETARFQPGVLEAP

CDK3/CycE1 = CDK3/CycE1 (Homo sapiens, UniProt Q00526); assay: Kinase profiling; assay type: biochemical; settings: 10 semi-logarithmic dilutions from 50 μM, singlicate
CDK12wt/CycK = CDK12wt/CycK (Homo sapiens, UniProt Q9NYV4); assay: Kinase profiling; assay type: biochemical; settings: 10 semi-logarithmic dilutions from 50 μM, singlicate
[16] = Homo sapiens, U-87 MG, Table 3, 48 h, n = 3 independent experiments, read-out: GI50 U87MG
[17] = Homo sapiens, MDA-MB-231, Table 3, 48 h, n = 3 independent experiments, read-out: GI50 MDA-MB231

## O=C1NC(=NCc2cccs2)S/C1=C\c1ccc2ncccc2c1 [RO-3306, reference compound]
[1]; Table 3, 48 h, n = 3 independent experiments, read-out: GI50 U87MG
  GI50: > 50 µM
[2]
  GI50: 2.8 µM
[3]
  GI50: 25.6 µM
[4]; Table 3, 48 h, n = 3 independent experiments, read-out: GI50 MDA-MB231
  GI50: 3.2 µM

## CC(=O)c1c(C)c2cnc(Nc3ccc(N4CCNCC4)cn3)nc2n(C2CCCC2)c1=O [Palbociclib, reference compound]
[5]; read-out: Metabolic stability, Mouse microsomes: Clearance
  microsomal CLint: 18.3 µL/min/mg
[5]; read-out: Metabolic stability, Mouse microsomes: t1/2
  half-life: 1.26 h
CDK19/CycC
  IC50: 11.8 µM
[6]; read-out: Metabolic stability, Mouse heptocytes: Clearance
  hepatocyte CLint: 14.4 µL/min/1e6 cells
[6]; read-out: Metabolic stability, Mouse heptocytes: t1/2
  half-life: 1.61 h
[7]
  Summary: permeability: Low
[1]; [16]
  GI50: 0.43 µM
[1]; Homo sapiens, U-87 MG, Table 4, n = 4, read-out: Growth inhibition GI50, Glioblastoma pRB Wild-Type U87MG
  GI50: 5.7 µM
[2]; Homo sapiens, MCF10
  GI50: 0.47 µM
[3]; Homo sapiens, NCI-H460
  GI50: 1.32 µM
[4]; [17]
  GI50: 0.74 µM
[4]; Homo sapiens, MDA-MB-231, Table 4, n = 4, read-out: Growth inhibition GI50, Breast cancer pRB Wild-Type MDA-MB-231
  GI50: 1.7 µM
[8]
  GI50: 19.9 µM
[9]
  GI50: 9.5 µM
[10]
  solubility thermodynamic: 2.32 µM (≈ 1.04 µg/mL)
DYRK2
  IC50: 6.91 µM
Caco-2 cells
  Permeability Caco-2 cells: Permeability, grade in words: (low)
[11]
  Papp: 0.4 ×10⁻⁶ cm/s
Cdk2/4/6_KO MEFs
  cell proliferation of Cdk2; Cdk4; Cdk6-triple knock out MEFs: did not show activity
Cdk4/6_KO MEFs
  cell proliferation of Cdk4; Cdk6-double knock out MEFs: did not show activity
[12]; read-out: Metabolic stability, Human microsomes: Clearance
  microsomal CLint: 23.6 µL/min/mg
[12]; read-out: Metabolic stability, Human microsomes: t1/2
  half-life: 0.98 h
[13]
  solubility kinetic: 19.9 µM (≈ 8.92 µg/mL)
[14]; read-out: Metabolic stability, Human hepatocytes: Clearance
  hepatocyte CLint: < 6.4 µL/min/1e6 cells
[14]; read-out: Metabolic stability, Human hepatocytes: t1/2
  half-life: > 3.61 h

## CN(C)C(=O)c1cc2cnc(Nc3ccc(N4CCNCC4)cn3)nc2n1C1CCCC1 [Ribociclib, reference compound]
CDK3/CycC
  IC50: 0.323 µM
PIM1
  IC50: 0.0244 µM
PCTAIRE1/CycY
  IC50: 0.589 µM
[15]
  cell cycle arrest by DNA content: robust G0/G1-phase arrest
CDK19/CycC
  IC50: 0.362 µM
CDK5/p25NCK
  IC50: 2.19 µM
[1]; [16]
  GI50: 0.26 µM
[2]; Homo sapiens, MCF10
  GI50: 0.54 µM
[3]; Homo sapiens, NCI-H460
  GI50: 1.47 µM
[4]; [17]
  GI50: 0.7 µM
CDK5/p35NCK
  IC50: 0.641 µM
AKT1 aa1-480
  IC50: > 50 µM
HIPK2
  IC50: 0.0397 µM
CDC7/DBF4
  IC50: 0.318 µM
DYRK2
  IC50: 0.0139 µM
DYRK1A
  IC50: 0.0145 µM
CDK8/CycC
  IC50: 2.02 µM
CDK7/CycH/MAT1
  IC50: 7.35 µM
ERK1
  IC50: > 50 µM
CDK3/CycE1
  IC50: 1.66 µM
CDK12wt/CycK
  IC50: 0.495 µM
